Data from patent US10106571B2, “HCV polymerase inhibitors” (priority 2013, dated 2018).
Like-named read-outs stand apart in the source and are kept apart here.

Tests used:
Format in all cases: cell-based
HCV GT3a L159F/L320F = assay: Genotype 3a transient replicon, L159F/L320F double mutant; settings: for EC50: Hepatitis C virus; for FC vs WT, HCV GT3a* L159F/L320F: fold change of EC50 vs wild type
Method: (§1) Similarly, the L159F/L320F double mutant generated by exposure to the nucleoside mericitabine and conferring cross resistance to sofosbuvir (Tong et al 2013 J. Infect. Dis., 209 (5), 668-75) was prepared in a genotype 3a transient replicon as described above in Kylefjord et al. ibid.
(§2) The compound of Example 2 was further evaluated to assess the antiviral activity against genotypes 1-6 of HCV, both wild type and a number of clinically relevant mutant strains. The result of the evaluation together with the average EC50 of the genotypes and the corresponding values for sofosbuvir are summarised in Tables 2 and 3.

HCV GT1a S282T = HCV GT1a S282T chimeric mutant replicon; settings: for EC50: Hepatitis C virus, GT1A, read-out: EC50 HCV GT1a* S282T; for FC vs WT, HCV GT1a* S282T: fold change of EC50 vs wild type
Description: as §2

HCV GT2a virus = assay: HCV GT2a virus; settings: Hepatitis C virus, wild type, geometric mean
Description: as §2

HCV GT1b S282T = HCV GT1b S282T mutant replicon; settings: for EC50: Hepatitis C virus, GT1B, read-out: EC50 HCV GT1b S282T; for FC vs WT, HCV GT1b S282T: fold change of EC50 vs wild type
Description: as §2

HCV GT1b (transient) = HCV GT1b (transient) replicon; settings: Hepatitis C virus, read-out: EC50 HCV GT1b (transient)
Description: as §2

[1] = tested on: genotypes 1-6 of HCV, wild type; assay: Average over wild type HCV genotype assays (Table 2); settings: for EC50: Hepatitis C virus, arithmetic mean +/- SEM; for potency increase vs sofosbuvir: from AVG EC50
Description: as §2

HCV GT1b L159F/L320F = HCV GT1b L159F/L320F mutant replicon; settings: for EC50: Hepatitis C virus, GT1B, read-out: EC50 HCV GT1b L159F/L320F; for FC vs WT, HCV GT1b L159F/L320F: fold change of EC50 vs wild type
Description: as §2

[2] = tested on: HCV type 1b replicon (Huh-7 luc/neo, Huh-Luc); assay: Replicon assay, Huh-Luc cells with HCV type 1b replicon (stable), luciferase readout
Description: The compounds of formula I may be examined for activity in the inhibition of HCV RNA replication in a cellular assay aimed at identifying compounds that inhibit a HCV functional cellular replicating cell line, also known as HCV replicons. A suitable cellular assay is based on a bicistronic expression construct, as described by Lohmann et al. (1999), Science vol. 285 pp. 110-113 with modifications described by Krieger et al. (2001), Journal of Virology 75: 4614-4624, in a multi-target screening strategy.
The assay utilizes the stably transfected cell line Huh-7 luc/neo (hereafter referred to as Huh-Luc). This cell line harbors an RNA encoding a bicistronic expression construct comprising the wild type NS3-NS5B regions of HCV type 1b translated from an Internal Ribosome Entry Site (IRES) from encephalomyocarditis virus (EMCV), preceded by a reporter portion (FfL-luciferase), and a selectable marker portion (neo^R, neomycine phosphotransferase). The construct is bordered by 5′ and 3′ NTRs (non-translated regions) from HCV type 1b. Continued culture of the replicon cells in the presence of G418 (neo^R) is dependent on the replication of the HCV RNA. The stably transfected replicon cells that express HCV RNA, which replicates autonomously and to high levels, encoding inter alia luciferase, are used for screening the antiviral compounds.
The replicon cells are plated in 384 well plates in the presence of the test and control compounds which are added in various concentrations. Following an incubation of three days, HCV replication is measured by assaying luciferase activity (using standard luciferase assay substrates and reagents and a Perkin Elmer ViewLux™ ultraHTS microplate imager). Replicon cells in the control cultures have high luciferase expression in the absence of any inhibitor. The inhibitory activity of a compound on luciferase activity is monitored on the Huh-Luc cells, enabling a dose-response curve for each test compound. EC50 values are then calculated, which value represents the amount of the compound required to decrease the level of detected luciferase activity by 50%, or more specifically, the ability of the genetically linked HCV replicon RNA to replicate.

HCV GT5a = HCV GT5a chimeric replicon; settings: Hepatitis C virus, read-out: EC50 HCV GT5a*
Description: as §2

HCV GT1a = HCV GT1a chimeric replicon; settings: Hepatitis C virus, read-out: EC50 HCV GT1a*
Description: as §2

HCV mutant strains = assay: Average over HCV mutant assays (Table 3); settings: for EC50: Hepatitis C virus, read-out: AVG EC50; for potency increase vs sofosbuvir: mutant assays, from AVG EC50
Description: as §2

HCV GT3a S282T = assay: Genotype 3a transient replicon bearing the S282T mutation; settings: for EC50: Hepatitis C virus; for FC vs WT, HCV GT3a* S282T: fold change of EC50 vs wild type
Method: (§3) The antiviral activity of commercially available sofosbuvir and the compound of Example 2 were compared in a genotype 3a transient replicon assay described in Kylefjord et al., J Virol. Methods 2014 195:156-63.
as §1, §2

HCV GT4a = HCV GT4a chimeric replicon; settings: Hepatitis C virus, read-out: EC50 HCV GT4a*
Description: as §2

HCV GT6a = HCV GT6a chimeric replicon; settings: Hepatitis C virus, read-out: EC50 HCV GT6a*
Description: as §2

HCV GT3a = assay: Genotype 3a transient replicon assay (Kylefjord et al.); settings: Hepatitis C virus
Description: as §3, §2

HCV GT2a replicon = assay: HCV GT2a replicon; settings: Hepatitis C virus, read-out: EC50 HCV GT2a replicon
Description: as §2

[3] = GT3A, read-out: EC50 HCV GT3a* L159F/L320F
[4] = read-out: EC50, genotype 3a L159F/L320F double mutant
[5] = Hepatitis C virus, GT1B, Huh-7, wild type, geometric mean, read-out: EC50 HCV GT1b (stable)
[6] = GT3A, read-out: EC50 HCV GT3a* S282T
[7] = read-out: EC50, genotype 3a S282T
[8] = read-out: EC50 against genotype 3a

## CC(C)OC(=O)[C@H](C)NP(=O)(OC[C@H]1O[C@@H](n2ccc(=O)[nH]c2=O)[C@@](F)(Cl)[C@@H]1O)Oc1ccccc1 (stereo partly drawn) [Example 2, (2S)-isopropyl 2-(((((2R,3R,4S,5R)-4-chloro-5-(2,4-dioxo-3,4-dihydropyrimidin-1(2H)-yl)-4-fluoro-3-hydroxytetrahydrofuran-2-yl)methoxy)(phenoxy)phosphoryl)amino)propanoate]
HCV GT3a L159F/L320F; [3]
  EC50: 62 nM
HCV GT3a L159F/L320F; [4]
  EC50: 62 nM
HCV GT3a L159F/L320F
  FC vs WT, HCV GT3a* L159F/L320F: 1.3
HCV GT1a S282T
  EC50: 301 nM
  FC vs WT, HCV GT1a* S282T: 6.0
HCV GT2a virus
  EC50: 17 nM
HCV GT1b S282T
  EC50: 298 nM
  FC vs WT, HCV GT1b S282T: 6.8
HCV GT1b (transient)
  EC50: 44 nM
[1]
  EC50: 43 nM
  potency increase vs sofosbuvir: 2.7
HCV GT1b L159F/L320F
  EC50: 70 nM
  FC vs WT, HCV GT1b L159F/L320F: 1.6
[2]; [5]
  EC50: 45 nM
[2]; Huh-Luc HCV 1b replicon, three days incubation, luciferase activity, read-out: EC50
  EC50: 55 nM
HCV GT5a
  EC50: 44 nM
HCV GT1a
  EC50: 50 nM
HCV mutant strains
  EC50: 171 nM
  potency increase vs sofosbuvir: 3.1
HCV GT3a S282T; [6]
  EC50: 122 nM
HCV GT3a S282T; [7]
  EC50: 130 nM
HCV GT3a S282T
  FC vs WT, HCV GT3a* S282T: 2.7
HCV GT4a
  EC50: 59 nM
HCV GT6a
  EC50: 58 nM
HCV GT3a; GT3A, read-out: EC50 HCV GT3a*
  EC50: 46 nM
HCV GT3a; [8]
  EC50: 72 nM
HCV GT2a replicon
  EC50: 23 nM

## CC(C)OC(=O)[C@H](C)N[P@](=O)(OC[C@H]1O[C@@H](n2ccc(=O)[nH]c2=O)[C@](C)(F)[C@@H]1O)Oc1ccccc1 [sofosbuvir, reference compound]
HCV GT3a L159F/L320F; [3]
  EC50: 190 nM
HCV GT3a L159F/L320F; [4]
  EC50: 190 nM
HCV GT3a L159F/L320F
  FC vs WT, HCV GT3a* L159F/L320F: 1.5
HCV GT1a S282T
  EC50: 1010 nM
  FC vs WT, HCV GT1a* S282T: 7.7
HCV GT2a virus
  EC50: 54 nM
HCV GT1b S282T
  EC50: 741 nM
  FC vs WT, HCV GT1b S282T: 8.8
HCV GT1b (transient)
  EC50: 81 nM
[1]
  EC50: 117 nM
  potency increase vs sofosbuvir: 1.0
HCV GT1b L159F/L320F
  EC50: 199 nM
  FC vs WT, HCV GT1b L159F/L320F: 2.5
[2]; [5]
  EC50: 98 nM
HCV GT5a
  EC50: 114 nM
HCV GT1a
  EC50: 131 nM
HCV mutant strains
  EC50: 532 nM
  potency increase vs sofosbuvir: 1.0
HCV GT3a S282T; [6]
  EC50: 521 nM
HCV GT3a S282T; [7]
  EC50: 480 nM
HCV GT3a S282T
  FC vs WT, HCV GT3a* S282T: 4.0
HCV GT4a
  EC50: 218 nM
HCV GT6a
  EC50: 179 nM
HCV GT3a; GT3A, read-out: EC50 HCV GT3a*
  EC50: 129 nM
HCV GT3a; [8]
  EC50: 230 nM
HCV GT2a replicon
  EC50: 48 nM
